Read-outs that look alike come from different tables or passages of the source.
Key:
HEKa = experiment: Cytotoxicity assay (MTT), HEKa; assay type: cell-based, human; conditions: normal cell line, 48 h, mean ± S.D., 3 experiments
Experimental: (§1) MCF-7 (human breast adenocarcinoma, estrogen-positive) and 4T1 (mouse carcinoma), as breast cancer cell lines, and H9C2 (rat cardiomyoblasts), NIH 3T3 (mouse fibroblasts), HEKa (primary human epidermal keratinocytes), MDCK (Madin-Darby Canine Kidney) cells, and A7r5 (rat vascular smooth muscle cells), as normal cell lines, were obtained from the American Type Culture Collection [ATCC] collection for use in the current study. All cell lines were cultured in Dulbecco's modified Eagle's medium (DMEM) containing 10% fetal bovine serum (FBS) and 4 mM L-glutamine at 37 °C and 5% CO2.
(§2) Cell viability was assessed by the addition of 3-(4,5-dimethylthiazol-2-yl)-2,5-diphenyltetrazolinium bromide (MTT). Briefly, cells were seeded (2–6 × 10^4 cells/ml) in 96-well plates and allowed to attach for 24 h. Solutions of test compounds were prepared and serially diluted to obtain the appropriate concentrations. The cells were treated with the test compounds at different concentrations (0.032–100 µM) and incubated for 48 h at 37 °C and 5% CO2. Then, the culture medium was removed, and medium containing 0.2 mg/ml MTT was added. After 3 h (37 °C, 5% CO2), the MTT-containing medium was removed, and 200 μl of dimethyl sulfoxide (DMSO) was immediately added to each sample. The absorbance was assessed at 540 nm using a Tecan multiplate reader Infinite 1000 (Austria). The half-maximal inhibitory concentration (IC50) of each compound was calculated using Graph Pad Prism 3.0.

MCF-7 = experiment: Cytotoxicity assay (MTT), MCF-7; assay type: cell-based, human; conditions: for IC50: read-out: Cytotoxicity, IC50, MCF-7
Experimental: as §1, §2

4T1 = experiment: Cytotoxicity assay (MTT), 4T1; assay type: cell-based, mouse; conditions: read-out: Cytotoxicity, IC50, 4T1
Experimental: as §1, §2

H9C2 = experiment: Cytotoxicity assay (MTT), H9C2; assay type: cell-based, rat; conditions: for IC50: normal cell line, MTT, 48 h, mean ± S.D., 3 experiments
Experimental: as §1, §2

NIH 3T3 = experiment: Cytotoxicity assay (MTT), 3T3; assay type: cell-based, mouse; conditions: normal cell line, 48 h, mean ± S.D., 3 experiments
Experimental: as §1, §2

A7r5 = experiment: Cytotoxicity assay (MTT), A7r5; assay type: cell-based, rat; conditions: normal cell line, 48 h, mean ± S.D., 3 experiments
Experimental: as §1, §2

MDCK = experiment: Cytotoxicity assay (MTT), MDCK; assay type: cell-based, Canine; conditions: normal cell line, 48 h, mean ± S.D., 3 experiments
Experimental: as §1, §2

[1] = Cytotoxicity assay (MTT), HEKa; assay type: cell-based, human; conditions: human, normal cell line, mean ± S.D., 3 experiments
Experimental: as §1, §2

[2] = Cytotoxicity assay (MTT), H9C2; assay type: cell-based, rat; conditions: rat, normal cell line, MTT, 48 h, mean ± S.D., 3 experiments
Experimental: as §1, §2

[3] = Cytotoxicity assay (MTT), 3T3; assay type: cell-based, mouse; conditions: mouse, normal cell line, mean ± S.D., 3 experiments
Experimental: as §1, §2

[4] = Cytotoxicity assay (MTT), A7r5; assay type: cell-based, rat; conditions: rat, normal cell line, mean ± S.D., 3 experiments
Experimental: as §1, §2

[5] = Cytotoxicity assay (MTT), MDCK; assay type: cell-based, Canine; conditions: dog, normal cell line, mean ± S.D., 3 experiments
Experimental: as §1, §2

MCF-7 cells [6] = experiment: NAD+/NADH assay kit measurement; assay type: cell-based, human; conditions: 2 μM, 10 min
Experimental: The NAD^+/NADH ratio in the MCF-7 cells exposed to the test compounds (2 μM) for 10 min was measured using an NAD^+/NADH assay kit (Abcam, ab65348) according to the manufacturer's instructions.

MCF-7 cells [7] = experiment: Fluorometric measurement of NMN level; assay type: cell-based, human; conditions: 2 μM, 10 min, vs control
Experimental: For fluorometric measurements of NMN, a previously described method was used, with minor modifications. […] The cells were washed with PBS and then lysed by adding 200 μl of 1 M HClO4 to each well and incubating at 4 °C for 20 min. The cells were harvested by scraping and transferred to a tube. The extracts were neutralized with 100 μl of 2 M KOH for 5 min at room temperature and 50 μl of 0.1 M bicine (pH 7.4) was added. The samples were centrifuged at 14 000 × g for 10 min at 4 °C, and the supernatant was collected for further analysis. The protein concentration in each sample was determined using a Bio-Rad protein assay kit. […] The reaction was incubated for 2 min at 4 °C, after which 45 μl of 88% formic acid was added, and the samples were incubated for another 10 min at 37 °C on a shaker. The fluorescence was measured using a Tecan multiplate reader Infinite 1000 (Austria) with excitation at 382 nm and emission at […].

permeabilized 4T1 cells = experiment: High-resolution fluorespirometry (respiration and H2O2 flux); assay type: cell-based, mouse; conditions: 1 µM, pyruvate-dependent OXPHOS state
Experimental: High-resolution fluorespirometry was performed using an Oxygraph-2 k system (OROBOROS INSTRUMENTS, Austria). All experiments were performed at 37 °C in MiR05 medium (110 mM sucrose, 60 mM K-lactobionate, 0.5 mM EGTA, 3 mM MgCl2, 20 mM taurine, 10 mM KH2PO4, 20 mM HEPES, pH 7.1 at 30 °C, and 0.1% BSA essentially fatty acid free). The medium was reoxygenated when the oxygen concentration dropped to 80 µM. H2O2 flux was simultaneously measured with respirometry in the O2k-Fluorometer using the H2O2-sensitive probe Ampliflu Red (AmR) as described. The H2O2/O flux ratio [%] was calculated as the H2O2 flux/(0.5 O2 flux).
In permeabilized 4T1 cells, pyruvate + malate (5 and 2 mM) or glutamate + malate (10 and 2 mM) were used to determine complex I (CI)-linked LEAK (L) respiration. ADP was added to a concentration of 5 mM to determine the oxidative phosphorylation-dependent respiration (OXPHOS state). Succinate (10 mM, complex II (CII) substrate) was then added to reconstitute convergent CI&II-linked respiration. Rotenone (0.5 µM, an inhibitor of complex I) and antimycin A (2.5 µM, an inhibitor of complex III) were added to determine the CII-linked OXPHOS capacity and residual oxygen consumption (ROX), respectively. Compound 6 was added to permeabilized cells after the addition of the respective substrates in the OXPHOS state (titration experiment) or in the LEAK state. In addition, compounds 3, 6 and 7 were tested at 1 µM in the OXPHOS coupling protocol in the LEAK state. The OXPHOS coupling efficiency was calculated as: 1-Resp.rateLEAKstate/Resp.rateOXPHOSstate
The substrate-dependent flux control factor was calculated as: 1-Resp.ratebeforeadditionofrespectivesubstrate/Resp.rateafteradditionofrespectivesubstrate

[8] = breast cancer cell line, MTT, 48 h, mean ± S.D., 3 experiments
[9] = HEKa cells (primary epidermal keratinocytes)
[10] = Homo sapiens, MCF7, breast cancer cell line, MTT, 48 h, mean ± S.D., 3 experiments
[11] = Mus musculus, 4T1, breast cancer cell line, MTT, 48 h, mean ± S.D., 3 experiments
[12] = A7r5 cells (vascular smooth muscle cells)

For “3-bromo-2-(2-hydroxy-2-methylethyl)-[1,2]selenazolo[2,3-a]pyridinium chloride [Compound 1]”, the IC50 (HEKa) was 2310 ± 20 nM, the IC50 (MCF-7; [8]) was 3100 ± 30 nM and the IC50 (4T1; [8]) was 300 ± 30 nM. It also gave an IC50 (H9C2) of 1800 ± 100 nM, an IC50 (NIH 3T3) of 130 ± 20 nM and an IC50 (A7r5) of 2890 ± 420 nM. It also gave an IC50 (MDCK) of 3260 ± 400 nM.
Work on `OC(c1ccccc1)(c1ccccc1)c1[se][n+]2ccccc2c1Br` [Compound 2, 3-bromo-2-(hydroxydiphenylmethyl)-[1,2]selenazolo[2,3-a]pyridin-8-ium] yielded an IC50 at 48 h [1, 9] of 2780 ± 80 nM, an IC50 (MCF-7; [10]) of 390 ± 30 nM and an IC50 (4T1; [11]) of 1100 ± 80 nM. The IC50 at 48 h ([2]; H9C2 cells (cardiomyoblasts)) was 4200 ± 300 nM, the IC50 at 48 h ([3]; NIH 3T3 cells (fibroblasts)) was 1600 ± 300 nM and the IC50 at 48 h [4, 12] was 1870 ± 260 nM. For the same compound, the IC50 at 48 h ([5]; MDCK cells) was 6270 ± 290 nM.
Work on `Cc1cc[n+]2[se]c(C3(O)CCCCC3)c(Br)c2c1` [Compound 4, 3-bromo-2-(1-hydroxycyclohexyl)-5-methyl-[1,2]selenazolo[2,3-a]pyridin-8-ium] yielded an IC50 at 48 h [1, 9] of 2050 ± 50 nM, an IC50 (MCF-7; [10]) of 1480 ± 40 nM and an IC50 (4T1; [11]) of 450 ± 20 nM. It also gave an IC50 at 48 h ([2]; H9C2 cells (cardiomyoblasts)) of 2900 ± 100 nM, an IC50 at 48 h ([3]; NIH 3T3 cells (fibroblasts)) of 790 ± 20 nM and an IC50 at 48 h [4, 12] of 1930 ± 160 nM. It also gave an IC50 at 48 h ([5]; MDCK cells) of 2540 ± 570 nM.
With `OC1(c2[se][n+]3ccccc3c2Br)CCCCCC1.[Br-]` [Compound 5, 3-Bromo-2-(1-hydroxycycloheptyl)-[1,2]selenazolo[2,3-a]pyridinium bromide] the IC50 at 48 h [1, 9] was 2010 ± 80 nM, the IC50 (MCF-7; [10]) was 290 ± 10 nM and the “increase of cytotoxicity against MCF-7 cells” value (MCF-7; cycloheptyl (5) versus cyclohexyl (4)) was “approximately 3 times”. For the same compound, the IC50 (4T1; [11]) was 410 ± 50 nM, the IC50 at 48 h ([2]; H9C2 cells (cardiomyoblasts)) was 9300 ± 200 nM and the IC50 at 48 h ([3]; NIH 3T3 cells (fibroblasts)) was 980 ± 30 nM. It also gave an IC50 at 48 h [4, 12] of 1920 ± 440 nM and an IC50 at 48 h ([5]; MDCK cells) of 1510 ± 370 nM.
In the case of `Cn1cc[n+]2[se]c(C3(O)CCCCC3)c(Br)c12` [Compound 7, 3-bromo-N-methyl-2-(1-hydroxycyclohexyl)[1,2]selenazolo[2,3-b]imidazolium bromide], the “NAD+/NADH ratio higher than in untreated cells” value (MCF-7 cells [6]) is reported as 1.65 times, the “decrease in NAD+ level” value (MCF-7 cells [6]; vs control) is reported as “without affecting” and the “decrease in NADH level” value (MCF-7 cells [6]; vs control) is reported as “induced a decrease”. The “decrease in NMN levels” value (MCF-7 cells [7]) was “not”, the IC50 at 48 h [1] was 2190 ± 90 nM and the IC50 (MCF-7; Homo sapiens, MCF7, 48 h) was 1480 ± 20 nM. For the same compound, the IC50 (4T1; Mus musculus, 4T1, 48 h) was 940 ± 60 nM, the IC50 at 48 h [2] was 670 ± 20 nM and the IC50 at 48 h [3] was 2200 ± 300 nM. The IC50 at 48 h [4] was 1660 ± 250 nM, the IC50 at 48 h [5] was 4280 ± 340 nM and the “increase in H2O2/O ratio” value (permeabilized 4T1 cells) was “immediate significant increases”. The “increase in H2O2 production” value (permeabilized 4T1 cells) was “immediate significant increases”.
With `COc1cccc2c1C(=O)c1c(O)c3c(c(O)c1C2=O)C[C@@](O)(C(=O)CO)C[C@@H]3O[C@H]1C[C@H](N)[C@H](O)[C@H](C)O1` [Doxorubicin, reference compound] the IC50 (MCF-7; [10]) was 1000 ± 300 nM, the IC50 (4T1; [11]) was 160 ± 60 nM and the “IC50 values in tumor cells versus cardiomyocytes, fold lower” value (H9C2; tumor cells versus cardiomyocytes) was 10–100 fold. The IC50 at 48 h ([2]; H9C2 cells (cardiomyoblasts)) was 11000 ± 1000 nM, the IC50 at 48 h ([3]; NIH 3T3 cells (fibroblasts)) was 750 ± 90 nM and the IC50 at 48 h [4, 12] was 1820 ± 350 nM. The IC50 at 48 h ([5]; MDCK cells) was 57000 ± 6100 nM.
`O=[Se](O)O` [Na2SeO3, Sodium selenite, reference compound] gave an IC50 (HEKa) of 13300 ± 1100 nM, an IC50 (MCF-7; [8]) of 17100 ± 2400 nM and an IC50 (4T1; [8]) of 4900 ± 600 nM. The IC50 (H9C2) was 1500 ± 300 nM, the IC50 (NIH 3T3) was 22300 ± 3600 nM and the IC50 (A7r5) was 39400 ± 8200 nM. It also gave an IC50 (MDCK) of 6300 ± 400 nM.

— paper PMC7725824, “Fused isoselenazolium salts suppress breast cancer cell growth by dramatic increase in pyruvate-dependent mitochondrial ROS production” (Scientific Reports, 2020)
